The source made the active and inactive calls. The rule behind the calls is not given here.
Key:
[1] = molecular target: T1, Solute carrier family 2, facilitated glucose transporter member 4 (Rattus norvegicus) (UniProt P19357); test: Induction of GLUT4 translocation in rat L6-GLUT4myc differentiated myotube cells at 3 uM after 20 mins by chemiluminescent method relative to 30 uM 2-(4-(4-(2-methoxyphenyl)-6,7-dihydro-5H-cyclopenta[d]pyridazin-1-ylamino)phenyl)acetamide
T1 sequence (whole entry): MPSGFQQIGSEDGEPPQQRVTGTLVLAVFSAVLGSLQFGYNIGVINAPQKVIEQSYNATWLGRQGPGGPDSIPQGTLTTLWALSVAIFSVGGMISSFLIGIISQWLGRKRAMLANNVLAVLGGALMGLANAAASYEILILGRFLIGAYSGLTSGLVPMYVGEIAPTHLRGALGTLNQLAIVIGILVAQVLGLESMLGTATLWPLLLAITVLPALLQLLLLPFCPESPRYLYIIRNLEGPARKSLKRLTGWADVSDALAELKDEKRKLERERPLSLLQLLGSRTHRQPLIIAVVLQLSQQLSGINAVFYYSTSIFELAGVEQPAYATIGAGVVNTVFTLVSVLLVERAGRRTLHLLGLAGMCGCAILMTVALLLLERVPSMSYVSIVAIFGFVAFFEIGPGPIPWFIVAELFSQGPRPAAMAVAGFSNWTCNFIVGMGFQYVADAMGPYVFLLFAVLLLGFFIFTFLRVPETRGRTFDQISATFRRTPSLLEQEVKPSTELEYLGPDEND

[2] = molecular target: T1, Solute carrier family 2, facilitated glucose transporter member 4 (Rattus norvegicus); test: Induction of GLUT4 translocation in rat L6-GLUT4myc differentiated myotube cells at 30 uM after 20 mins by chemiluminescent method relative to 30 uM 2-(4-(4-phenylphthalazin-1-ylamino)phenyl)acetamide
[3] = 1-octanol/PBS distribution co-efficient, log D of the compound at pH 7.4; format: physicochemical
[4] = Stability of the compound in mouse liver microsomes assessed as parent compound remaining after 30 mins relative to control; format: ADME, Microsome; details: read-out: Stability
[5] = molecular target: T1, Solute carrier family 2, facilitated glucose transporter member 4 (Rattus norvegicus); test: Potency index, ratio of EC50 for 2-(4-(4-(2-methoxyphenyl)-6,7-dihydro-5H-cyclopenta[d]pyridazin-1-ylamino)phenyl)acetamide EC50 to EC50 for test compound for GLUT4 translocation activity in L6-GLUT4myc differentiated myotube cells
[6] = AUC (0 to 4 hrs) in db/db mouse plasma at 10 mg/kg, po measured up to 4 hrs; format: ADME, organism-based; set-up: dose 10 mg/kg, time < 4 hr, route oral
Mus musculus [7] = test: Antidiabetic activity in db/db mouse assessed as reduction in fasting plasma glucose AUC at 10 mg/kg, po measured up to 4 hrs; format: functional, organism-based; set-up: dose 10 mg/kg, time < 4 hr
[8] = Cmax in db/db mouse plasma at 30 mg/kg, po measured up to 4 hrs; format: ADME, organism-based; set-up: dose 30 mg/kg, route oral
[9] = Cmax in db/db mouse plasma at 3 mg/kg, po measured up to 4 hrs; format: ADME, organism-based; set-up: dose 3 mg/kg, route oral
Mus musculus [10] = test: Antidiabetic activity in db/db mouse assessed as reduction in fasting plasma glucose level at 3 mg/kg, po measured up to 4 hrs; format: functional
[11] = AUC (0 to 4 hrs) in db/db mouse plasma at 3 to 30 mg/kg, po measured up to 4 hrs; format: ADME, organism-based; details: in vivo
[12] = AUC (0 to 4 hrs) in db/db mouse plasma at 30 mg/kg, po measured up to 4 hrs; format: ADME, organism-based; set-up: time < 4 hr, dose 30 mg/kg, route oral
Mus musculus [13] = test: Antidiabetic activity in db/db mouse assessed as reduction in fasting plasma glucose level at 3 to 30 mg/kg, po measured up to 4 hrs; format: functional, organism-based
Mus musculus [14] = test: Antidiabetic activity in db/db mouse assessed as reduction in fasting plasma glucose AUC at 3 mg/kg, po measured up to 4 hrs; format: functional, organism-based; set-up: dose 3 mg/kg, time < 4 hr
[15] = Cmax in db/db mouse plasma at 10 mg/kg, po measured up to 4 hrs; format: ADME, organism-based; set-up: dose 10 mg/kg, route oral
[16] = AUC (0 to 4 hrs) in db/db mouse plasma at 3 mg/kg, po measured up to 4 hrs; format: ADME, organism-based; set-up: dose 3 mg/kg, time < 4 hr, route oral
Mus musculus [17] = test: Antidiabetic activity in db/db mouse assessed as reduction in fasting plasma glucose AUC at 30 mg/kg, po measured up to 4 hrs; format: functional, organism-based; set-up: dose 30 mg/kg, time < 4 hr
Mus musculus [18] = test: Antidiabetic activity in db/db mouse assessed as reduction in fasting plasma glucose level at 30 mg/kg, po measured up to 4 hrs; format: functional
[19] = Cmax in db/db mouse plasma at 3 to 30 mg/kg, po measured up to 4 hrs; format: ADME, organism-based; details: in vivo
Mus musculus [20] = test: Antidiabetic activity in db/db mouse assessed as reduction in fasting plasma glucose level at 10 mg/kg, po measured up to 4 hrs; format: functional
[21] = molecular target: T1, Solute carrier family 2, facilitated glucose transporter member 4 (Rattus norvegicus); test: Induction of GLUT4 translocation in rat L6-GLUT4myc differentiated myotube cells at 3 uM after 20 mins by chemiluminescent method relative to 2-(4-(4-(2-methoxyphenyl)phthalazin-1-ylamino)phenyl)acetamide

## COc1ccccc1-c1nnc(Nc2ccc(CC(N)=O)cc2F)c2c1CCC2
[1]
  fold change (FC): 0.85

## COc1ccccc1-c1nnc(Nc2ccc(CC(N)=O)cc2Cl)c2c1CCC2
[1]
  fold change (FC): 0.45

## COc1ccccc1-c1nnc(Nc2ccc(CC(N)=O)cc2)c2c1CCCC2
[2]
  fold change (FC): 0.9

## COc1ccccc1-c1nnc(Nc2ccc(CC(N)=O)cc2F)c2ccsc12
[3]
  logD: 2.6
[4]
  remaining at 0.5 h: 92%
[5]
  Ratio EC50: 7

## CC(C)(C)NC(=O)NCCOCCOc1ccccc1-c1nnc(Nc2ccc(CC(N)=O)cc2F)c2ccsc12
[3]
  logD: 2.9
[4]
  remaining at 0.5 h: 2%

## COc1ccccc1-c1nnc(Nc2ccc(CC(N)=O)cc2)c2ccccc12
[2]
  fold change (FC): 2.7

## COc1ccccc1-c1nnc(Nc2ccc(C(N)=O)cc2)c2c1CCC2
[1]
  fold change (FC): 0.1

## COc1ccccc1-c1nnc(Nc2ccc(CC(N)=O)cc2)c2ccsc12
[1]
  fold change (FC): 0.97

## CNC(=O)Cc1ccc(Nc2nnc(-c3ccccc3OC)c3c2CCC3)cc1
[1]
  fold change (FC): 0.08

## COc1ccccc1-c1nnc(Nc2ccc(CC(N)=O)c(C)c2)c2c1CCC2
[1]
  fold change (FC): 0.36

## CCc1c(Nc2ccc(CC(N)=O)cc2)nnc(-c2ccccc2OC)c1CC
[2]
  fold change (FC): inactive

## COc1ccccc1-c1nnc(Nc2ccc(CC(N)=O)cc2C(F)(F)F)c2c1CCC2
[1]
  fold change (FC): 0.12

## CC(C)(C)OC(=O)NCCOCCOc1ccccc1-c1nnc(Nc2ccc(CC(N)=O)cc2F)c2ccsc12
[3]
  logD: 3.2
[4]
  remaining at 0.5 h: 15%

## COc1ccccc1-c1nnc(Nc2ccc(CC(=O)N(C)C)cc2)c2c1CCC2
[1]
  fold change (FC): 0.09

## COCCOc1ccccc1-c1nnc(Nc2ccc(CC(N)=O)cc2F)c2ccsc12
[6]
  AUC(0-t) at 4 h: 10.6 µM·h
Mus musculus [7]
  AUC: 1160 mg/dl.hr
[8]
  Cmax: 4.38 µM
[9]
  Cmax: 3.38 µM
[3]
  logD: 2.1
Mus musculus [10]
  Emax: 220 mg/dL
[11]
  AUC: Dose-dependent effect
[12]
  AUC(0-t) at 4 h: 12.6 µM·h
Mus musculus [13]
  Activity: Dose-dependent effect
Mus musculus [14]
  AUC: 644 mg/dl.hr
[15]
  Cmax: 4 µM
[4]
  remaining at 0.5 h: 66%
[16]
  AUC(0-t) at 4 h: 9.01 µM·h
Mus musculus [17]
  AUC: 1210 mg/dl.hr
Mus musculus [18]
  Emax: 435 mg/dL
[19]
  Cmax: Dose-dependent effect
Mus musculus [20]
  Emax: 393 mg/dL

## COc1ccccc1-c1nnc(Nc2ccc(CC(N)=O)cc2)c2oc(C)cc12
[1]
  fold change (FC): inactive

## COc1ccccc1-c1nnc(Nc2ccc(CC(N)=O)c(F)c2)c2c1CCC2
[1]
  fold change (FC): 0.56

## COc1ccccc1-c1nnc(Nc2cccc(CC(N)=O)c2)c2c1CCC2
[1]
  fold change (FC): 0.04

## CCc1ccccc1-c1nnc(Nc2ccc(CC(N)=O)cc2)c2ccccc12
[2]
  fold change (FC): 1.7

## COc1ccccc1-c1nnc(Nc2ccc(CC(N)=O)cc2)c2ccoc12
[1]
  fold change (FC): 0.33

## COCCOCCOc1ccccc1-c1nnc(Nc2ccc(CC(N)=O)cc2F)c2ccsc12
[3]
  logD: 1.8
[4]
  remaining at 0.5 h: 82%

## COc1ccccc1-c1nnc(Nc2ccc(CCC(N)=O)cc2)c2c1CCC2
[1]
  fold change (FC): inactive

## Cc1cccc(-c2nnc(Nc3ccc(CC(N)=O)cc3)c3ccccc23)c1
[2]
  fold change (FC): 1.3

## COc1ccccc1-c1nnc(Nc2ccc(CC(N)=O)cc2C)c2c1CCC2
[1]
  fold change (FC): 0.52

## COc1cccc(-c2nnc(Nc3ccc(CC(N)=O)cc3)c3ccccc23)c1
[2]
  fold change (FC): 1

## NC(=O)Cc1ccc(Nc2nnc(-c3ccccc3OCC3COCCO3)c3sccc23)c(F)c1 (stereo unspecified)
[3]
  logD: 1.8
[4]
  remaining at 0.5 h: > 100%

## COc1ccccc1-c1nnc(Nc2ccc(CC(N)=O)cc2)c2occc12
[1]
  fold change (FC): 0.46

## COc1ccccc1-c1nnc(Nc2ccc(CC(N)=O)cc2)c(C)c1C
[2]
  fold change (FC): 3.7

## Cc1ccccc1-c1nnc(Nc2ccc(CC(N)=O)cc2)c2ccccc12
[2]
  fold change (FC): 1.6

## COc1ccccc1-c1nnc(Nc2ccc(CC(N)=O)cc2)c2sccc12
[1]
  fold change (FC): 0.67

## COc1ccccc1-c1nnc(Nc2ccc(C(C)(C)C(N)=O)cc2)c2c1CCC2
[1]
  fold change (FC): 0.3

## NC(=O)Cc1ccc(Nc2nnc(-c3ccccc3OCc3ccccn3)c3sccc23)c(F)c1
[3]
  logD: 2.9
[4]
  remaining at 0.5 h: 19%

## COc1cc(CC(N)=O)ccc1Nc1nnc(-c2ccccc2OC)c2c1CCC2
[1]
  fold change (FC): 0.13

## NC(=O)Cc1ccc(Nc2nnc(-c3ccccc3OCc3cscn3)c3sccc23)c(F)c1
[3]
  logD: 2.6
[4]
  remaining at 0.5 h: 79%

## COc1ccc(-c2nnc(Nc3ccc(CC(N)=O)cc3)c3ccccc23)cc1
[2]
  fold change (FC): inactive

## COc1ccccc1-c1nnc(Nc2ccc(CC(N)=O)cc2O)c2c1CCC2
[1]
  fold change (FC): 0.09

## COc1ccccc1-c1nnc(Nc2ccc(CC(N)=O)cc2)c2c1CCC2
[3]
  logD: 2.3
[21]
  fold change (FC): 2
[2]
  fold change (FC): 4.7
[4]
  remaining at 0.5 h: 90%

## COc1ccccc1-c1nnc(Nc2ccc(C3(C(N)=O)CC3)cc2)c2c1CCC2
[1]
  fold change (FC): 0.37

## COc1ccccc1-c1nnc(Nc2ccc(CS(N)(=O)=O)cc2)c2c1CCC2
[1]
  fold change (FC): 0.09

Reference: ChEMBL document CHEMBL4340562, “Discovery of novel pyridazine derivatives as glucose transporter type 4 (GLUT4) translocation activators” (Bioorg Med Chem Lett, 2019)
